Publication PMC12578388, “Allosteric modulation of the solute carrier transporter SLC39A8 potentiates manganese and cadmium uptake” (The Journal of Clinical Investigation, 2025)

Key:
Format in all cases: cell-based
pig SLC39A8 = molecular target: T1, pig SLC39A8 (Sus scrofa, UniProt A0A480EKF5, F327C); experiment: Cd uptake in cells expressing mutant pig SLC39A8 (gain of EFV sensitivity)
T1 sequence (A0A480EKF5 20-461 F327C): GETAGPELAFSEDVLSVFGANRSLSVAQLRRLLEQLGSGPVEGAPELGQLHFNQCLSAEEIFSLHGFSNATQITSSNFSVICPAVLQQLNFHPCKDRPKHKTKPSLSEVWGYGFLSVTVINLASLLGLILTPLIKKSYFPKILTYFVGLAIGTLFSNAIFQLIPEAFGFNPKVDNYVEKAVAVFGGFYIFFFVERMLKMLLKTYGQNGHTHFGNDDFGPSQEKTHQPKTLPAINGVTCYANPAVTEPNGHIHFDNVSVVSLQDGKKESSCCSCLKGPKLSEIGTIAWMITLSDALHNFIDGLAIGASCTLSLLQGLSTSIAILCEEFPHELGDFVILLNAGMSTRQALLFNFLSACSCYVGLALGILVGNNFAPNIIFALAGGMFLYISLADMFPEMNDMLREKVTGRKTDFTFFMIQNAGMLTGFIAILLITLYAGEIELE

rat SLC39A8 = molecular target: T2, rat SLC39A8 (Rattus norvegicus, UniProt Q5FVQ0, Y328C); experiment: Cd uptake in cells expressing mutant rat SLC39A8 (gain of EFV sensitivity)
T2 sequence (Q5FVQ0 20-462 Y328C): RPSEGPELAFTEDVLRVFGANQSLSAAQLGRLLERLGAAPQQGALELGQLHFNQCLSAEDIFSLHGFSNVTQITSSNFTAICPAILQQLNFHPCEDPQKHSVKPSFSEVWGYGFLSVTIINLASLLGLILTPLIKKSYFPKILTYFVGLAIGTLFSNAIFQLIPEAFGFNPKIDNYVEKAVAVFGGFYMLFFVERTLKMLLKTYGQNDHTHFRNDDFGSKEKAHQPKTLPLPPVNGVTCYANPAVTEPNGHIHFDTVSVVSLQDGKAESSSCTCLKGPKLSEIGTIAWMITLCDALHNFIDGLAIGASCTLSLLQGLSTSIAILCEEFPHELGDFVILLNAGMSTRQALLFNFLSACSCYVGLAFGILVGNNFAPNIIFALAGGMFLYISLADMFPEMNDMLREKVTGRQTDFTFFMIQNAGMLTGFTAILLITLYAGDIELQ

mouse SLC39A8 = molecular target: T3, mouse SLC39A8 (Mus musculus, UniProt Q91W10); experiment: Cd uptake in cells expressing mouse SLC39A8
T3 sequence (Q91W10 20-462): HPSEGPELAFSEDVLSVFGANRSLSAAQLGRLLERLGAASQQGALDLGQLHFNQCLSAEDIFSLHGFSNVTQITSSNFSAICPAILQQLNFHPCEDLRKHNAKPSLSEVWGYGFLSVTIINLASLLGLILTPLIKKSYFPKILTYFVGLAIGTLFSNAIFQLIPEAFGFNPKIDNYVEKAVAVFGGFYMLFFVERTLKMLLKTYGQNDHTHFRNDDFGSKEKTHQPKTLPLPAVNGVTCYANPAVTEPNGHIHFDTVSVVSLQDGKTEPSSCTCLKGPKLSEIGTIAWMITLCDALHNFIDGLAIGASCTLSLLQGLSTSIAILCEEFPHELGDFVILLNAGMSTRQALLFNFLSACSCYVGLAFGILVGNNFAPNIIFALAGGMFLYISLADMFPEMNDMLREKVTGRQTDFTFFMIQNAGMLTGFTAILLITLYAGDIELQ

In the case of `O=C1Nc2ccc(Cl)cc2[C@@](C#CC2CC2)(C(F)(F)F)O1` [compound 1, efavirenz], the “Cd uptake in cells expressing mutant pig SLC39A8 (gain of EFV sensitivity)” value (pig SLC39A8) is reported as “EFV sensitivity could be created by replacing these residues with cysteine in pig F327C and rat Y328C, respectively”, the “Cd uptake in cells expressing mutant rat SLC39A8 (gain of EFV sensitivity)” value (rat SLC39A8) is reported as “EFV sensitivity could be created by replacing these residues with cysteine in pig F327C and rat Y328C, respectively” and the “Cd uptake in cells expressing mouse SLC39A8” value (mouse SLC39A8) is reported as “EFV was able to enhance Cd uptake in cells expressing mouse SLC39A8 but not chicken, frog, or zebrafish”.
